Columns and labels:
Experiment in all cases: relative viability (nuclei count vs DMSO), 5 days (fraction); higher = more cells survive
Seliciclib + Vorinostat = compound: CC[C@H](CO)Nc1nc(NCc2ccccc2)c2ncn(C(C)C)c2n1 [Seliciclib] + O=C(CCCCCCC(=O)Nc1ccccc1)NO [Vorinostat] (partner 1 µM)
Method in brief: (§1)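 Lung cancer cell lines were seeded in 1536-well plates and dosed by pin tool the next day, with either a single drug or a fixed anchor-drug dose combined with five library-drug doses (not always all listed) spaced in √10 steps. Five days later, one step fixed the cells and stained their nuclei (final 0.05% Triton X-100, 1% formaldehyde, 1 ug/ml Hoechst), and nuclei were counted on 4× images. Relative viability is the nuclei count in treated wells divided by the count in vehicle wells, and each value is the median of duplicate plates.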

Seliciclib + Pemetrexed = compound: CC[C@H](CO)Nc1nc(NCc2ccccc2)c2ncn(C(C)C)c2n1 [Seliciclib] + Nc1nc2[nH]cc(CCc3ccc(C(=O)N[C@@H](CCC(=O)O)C(=O)O)cc3)c2c(=O)[nH]1 [Pemetrexed] (partner 0.2 µM)
Method in brief: as §1

Seliciclib + Dasatinib = compound: CC[C@H](CO)Nc1nc(NCc2ccccc2)c2ncn(C(C)C)c2n1 [Seliciclib] + Cc1nc(Nc2ncc(C(=O)Nc3c(C)cccc3Cl)s2)cc(N2CCN(CCO)CC2)n1 [Dasatinib] (partner 0.075 µM)
Method in brief: as §1

Seliciclib + Palbociclib = compound: CC[C@H](CO)Nc1nc(NCc2ccccc2)c2ncn(C(C)C)c2n1 [Seliciclib] + CC(=O)c1c(C)c2cnc(Nc3ccc(N4CCNCC4)cn3)nc2n(C2CCCC2)c1=O [Palbociclib] (partner 0.5 µM)
Method in brief: as §1

NCI-H2170
relative viability (Seliciclib + Vorinostat; first compound 0.08 µM): 0.742 | relative viability (Seliciclib + Vorinostat; first compound 0.8 µM): 0.774 | relative viability (Seliciclib + Vorinostat; first compound 2.53 µM): 0.687 | relative viability (Seliciclib + Vorinostat; first compound 8 µM): 0.663 | relative viability (Seliciclib + Pemetrexed; first compound 0.08 µM): 0.269 | relative viability (Seliciclib + Pemetrexed; first compound 0.8 µM): 0.262 | relative viability (Seliciclib + Pemetrexed; first compound 2.53 µM): 0.268 | relative viability (Seliciclib + Pemetrexed; first compound 8 µM): 0.26 | relative viability (Seliciclib + Dasatinib; first compound 0.08 µM): 0.547 | relative viability (Seliciclib + Dasatinib; first compound 0.253 µM): 0.464 | relative viability (Seliciclib + Dasatinib; first compound 0.8 µM): 0.472 | relative viability (Seliciclib + Dasatinib; first compound 2.53 µM): 0.636 | relative viability (Seliciclib + Dasatinib; first compound 8 µM): 0.52 | relative viability (Seliciclib + Palbociclib; first compound 0.08 µM): 0.389 | relative viability (Seliciclib + Palbociclib; first compound 0.8 µM): 0.372 | relative viability (Seliciclib + Palbociclib; first compound 2.53 µM): 0.364 | relative viability (Seliciclib + Palbociclib; first compound 8 µM): 0.308

NCI-H2228
relative viability (Seliciclib + Vorinostat; first compound 0.08 µM): 0.585 | relative viability (Seliciclib + Vorinostat; first compound 0.253 µM): 0.521 | relative viability (Seliciclib + Vorinostat; first compound 0.8 µM): 0.58 | relative viability (Seliciclib + Vorinostat; first compound 2.53 µM): 0.586 | relative viability (Seliciclib + Vorinostat; first compound 8 µM): 0.335 | relative viability (Seliciclib + Pemetrexed; first compound 0.08 µM): 0.325 | relative viability (Seliciclib + Pemetrexed; first compound 0.253 µM): 0.326 | relative viability (Seliciclib + Pemetrexed; first compound 0.8 µM): 0.337 | relative viability (Seliciclib + Pemetrexed; first compound 2.53 µM): 0.34 | relative viability (Seliciclib + Pemetrexed; first compound 8 µM): 0.344 | relative viability (Seliciclib + Dasatinib; first compound 0.08 µM): 0.581 | relative viability (Seliciclib + Dasatinib; first compound 0.253 µM): 0.488 | relative viability (Seliciclib + Dasatinib; first compound 0.8 µM): 0.481 | relative viability (Seliciclib + Dasatinib; first compound 2.53 µM): 0.514 | relative viability (Seliciclib + Dasatinib; first compound 8 µM): 0.368 | relative viability (Seliciclib + Palbociclib; first compound 0.08 µM): 0.851 | relative viability (Seliciclib + Palbociclib; first compound 0.253 µM): 0.617 | relative viability (Seliciclib + Palbociclib; first compound 0.8 µM): 0.714 | relative viability (Seliciclib + Palbociclib; first compound 2.53 µM): 0.86 | relative viability (Seliciclib + Palbociclib; first compound 8 µM): 0.507

NCI-H2342
relative viability (Seliciclib + Vorinostat; first compound 0.08 µM): 0.792 | relative viability (Seliciclib + Vorinostat; first compound 0.253 µM): 0.753 | relative viability (Seliciclib + Vorinostat; first compound 0.8 µM): 0.706 | relative viability (Seliciclib + Vorinostat; first compound 2.53 µM): 0.663 | relative viability (Seliciclib + Vorinostat; first compound 8 µM): 0.705 | relative viability (Seliciclib + Pemetrexed; first compound 0.08 µM): 0.748 | relative viability (Seliciclib + Pemetrexed; first compound 0.253 µM): 0.779 | relative viability (Seliciclib + Pemetrexed; first compound 0.8 µM): 0.752 | relative viability (Seliciclib + Pemetrexed; first compound 2.53 µM): 0.693 | relative viability (Seliciclib + Pemetrexed; first compound 8 µM): 0.711 | relative viability (Seliciclib + Dasatinib; first compound 0.08 µM): 0.328 | relative viability (Seliciclib + Dasatinib; first compound 0.253 µM): 0.336 | relative viability (Seliciclib + Dasatinib; first compound 0.8 µM): 0.313 | relative viability (Seliciclib + Dasatinib; first compound 2.53 µM): 0.301 | relative viability (Seliciclib + Dasatinib; first compound 8 µM): 0.319 | relative viability (Seliciclib + Palbociclib; first compound 0.08 µM): 0.63 | relative viability (Seliciclib + Palbociclib; first compound 0.253 µM): 0.477 | relative viability (Seliciclib + Palbociclib; first compound 0.8 µM): 0.539 | relative viability (Seliciclib + Palbociclib; first compound 2.53 µM): 0.524 | relative viability (Seliciclib + Palbociclib; first compound 8 µM): 0.492

NCI-H2347
relative viability (Seliciclib + Vorinostat; first compound 0.08 µM): 0.595 | relative viability (Seliciclib + Vorinostat; first compound 0.253 µM): 0.656 | relative viability (Seliciclib + Vorinostat; first compound 0.8 µM): 0.443 | relative viability (Seliciclib + Vorinostat; first compound 2.53 µM): 0.566 | relative viability (Seliciclib + Vorinostat; first compound 8 µM): 0.432 | relative viability (Seliciclib + Pemetrexed; first compound 0.08 µM): 0.409 | relative viability (Seliciclib + Pemetrexed; first compound 0.253 µM): 0.454 | relative viability (Seliciclib + Pemetrexed; first compound 0.8 µM): 0.419 | relative viability (Seliciclib + Pemetrexed; first compound 2.53 µM): 0.437 | relative viability (Seliciclib + Pemetrexed; first compound 8 µM): 0.42 | relative viability (Seliciclib + Dasatinib; first compound 0.08 µM): 0.323 | relative viability (Seliciclib + Dasatinib; first compound 0.253 µM): 0.35 | relative viability (Seliciclib + Dasatinib; first compound 0.8 µM): 0.209 | relative viability (Seliciclib + Dasatinib; first compound 2.53 µM): 0.248 | relative viability (Seliciclib + Dasatinib; first compound 8 µM): 0.302 | relative viability (Seliciclib + Palbociclib; first compound 0.08 µM): 0.44 | relative viability (Seliciclib + Palbociclib; first compound 0.253 µM): 0.439 | relative viability (Seliciclib + Palbociclib; first compound 0.8 µM): 0.404 | relative viability (Seliciclib + Palbociclib; first compound 2.53 µM): 0.406 | relative viability (Seliciclib + Palbociclib; first compound 8 µM): 0.433

NCI-H2405
relative viability (Seliciclib + Vorinostat; first compound 0.08 µM): 1.06 | relative viability (Seliciclib + Vorinostat; first compound 0.253 µM): 1.2 | relative viability (Seliciclib + Vorinostat; first compound 0.8 µM): 0.98 | relative viability (Seliciclib + Vorinostat; first compound 2.53 µM): 0.742 | relative viability (Seliciclib + Vorinostat; first compound 8 µM): 0.739 | relative viability (Seliciclib + Pemetrexed; first compound 0.08 µM): 1.05 | relative viability (Seliciclib + Pemetrexed; first compound 0.253 µM): 1.23 | relative viability (Seliciclib + Pemetrexed; first compound 0.8 µM): 1.07 | relative viability (Seliciclib + Pemetrexed; first compound 2.53 µM): 0.825 | relative viability (Seliciclib + Pemetrexed; first compound 8 µM): 0.83 | relative viability (Seliciclib + Dasatinib; first compound 0.08 µM): 0.211 | relative viability (Seliciclib + Dasatinib; first compound 0.253 µM): 0.219 | relative viability (Seliciclib + Dasatinib; first compound 0.8 µM): 0.197 | relative viability (Seliciclib + Dasatinib; first compound 2.53 µM): 0.171 | relative viability (Seliciclib + Dasatinib; first compound 8 µM): 0.212 | relative viability (Seliciclib + Palbociclib; first compound 0.08 µM): 0.485 | relative viability (Seliciclib + Palbociclib; first compound 0.253 µM): 0.483 | relative viability (Seliciclib + Palbociclib; first compound 0.8 µM): 0.552 | relative viability (Seliciclib + Palbociclib; first compound 2.53 µM): 0.361 | relative viability (Seliciclib + Palbociclib; first compound 8 µM): 0.452

NCI-H3122
relative viability (Seliciclib + Vorinostat; first compound 0.08 µM): 0.925 | relative viability (Seliciclib + Vorinostat; first compound 0.253 µM): 0.979 | relative viability (Seliciclib + Vorinostat; first compound 0.8 µM): 0.759 | relative viability (Seliciclib + Vorinostat; first compound 2.53 µM): 1.09 | relative viability (Seliciclib + Vorinostat; first compound 8 µM): 0.86 | relative viability (Seliciclib + Pemetrexed; first compound 0.08 µM): 0.207 | relative viability (Seliciclib + Pemetrexed; first compound 0.253 µM): 0.211 | relative viability (Seliciclib + Pemetrexed; first compound 0.8 µM): 0.177 | relative viability (Seliciclib + Pemetrexed; first compound 2.53 µM): 0.205 | relative viability (Seliciclib + Pemetrexed; first compound 8 µM): 0.228 | relative viability (Seliciclib + Dasatinib; first compound 0.08 µM): 0.719 | relative viability (Seliciclib + Dasatinib; first compound 0.8 µM): 0.787 | relative viability (Seliciclib + Dasatinib; first compound 2.53 µM): 0.679 | relative viability (Seliciclib + Dasatinib; first compound 8 µM): 0.812 | relative viability (Seliciclib + Palbociclib; first compound 0.08 µM): 0.179 | relative viability (Seliciclib + Palbociclib; first compound 0.253 µM): 0.135 | relative viability (Seliciclib + Palbociclib; first compound 0.8 µM): 0.172 | relative viability (Seliciclib + Palbociclib; first compound 2.53 µM): 0.172 | relative viability (Seliciclib + Palbociclib; first compound 8 µM): 0.182

PC-3 [JPC-3]
relative viability (Seliciclib + Vorinostat; first compound 0.08 µM): 0.796 | relative viability (Seliciclib + Vorinostat; first compound 0.253 µM): 0.957 | relative viability (Seliciclib + Vorinostat; first compound 0.8 µM): 0.876 | relative viability (Seliciclib + Vorinostat; first compound 2.53 µM): 0.601 | relative viability (Seliciclib + Vorinostat; first compound 8 µM): 0.633 | relative viability (Seliciclib + Pemetrexed; first compound 0.08 µM): 1.11 | relative viability (Seliciclib + Pemetrexed; first compound 0.253 µM): 1.17 | relative viability (Seliciclib + Pemetrexed; first compound 0.8 µM): 1.08 | relative viability (Seliciclib + Pemetrexed; first compound 2.53 µM): 0.995 | relative viability (Seliciclib + Pemetrexed; first compound 8 µM): 0.968 | relative viability (Seliciclib + Dasatinib; first compound 0.08 µM): 1.04 | relative viability (Seliciclib + Dasatinib; first compound 0.253 µM): 1 | relative viability (Seliciclib + Dasatinib; first compound 0.8 µM): 0.982 | relative viability (Seliciclib + Dasatinib; first compound 2.53 µM): 0.936 | relative viability (Seliciclib + Dasatinib; first compound 8 µM): 0.946 | relative viability (Seliciclib + Palbociclib; first compound 0.08 µM): 0.477 | relative viability (Seliciclib + Palbociclib; first compound 0.253 µM): 0.615 | relative viability (Seliciclib + Palbociclib; first compound 0.8 µM): 0.543 | relative viability (Seliciclib + Palbociclib; first compound 2.53 µM): 0.498 | relative viability (Seliciclib + Palbociclib; first compound 8 µM): 0.476

PC-14
relative viability (Seliciclib + Vorinostat; first compound 0.08 µM): 0.663 | relative viability (Seliciclib + Vorinostat; first compound 0.253 µM): 0.747 | relative viability (Seliciclib + Vorinostat; first compound 0.8 µM): 0.744 | relative viability (Seliciclib + Vorinostat; first compound 2.53 µM): 0.644 | relative viability (Seliciclib + Vorinostat; first compound 8 µM): 0.625 | relative viability (Seliciclib + Pemetrexed; first compound 0.08 µM): 0.125 | relative viability (Seliciclib + Pemetrexed; first compound 0.253 µM): 0.147 | relative viability (Seliciclib + Pemetrexed; first compound 0.8 µM): 0.166 | relative viability (Seliciclib + Pemetrexed; first compound 2.53 µM): 0.143 | relative viability (Seliciclib + Pemetrexed; first compound 8 µM): 0.122 | relative viability (Seliciclib + Dasatinib; first compound 0.08 µM): 0.288 | relative viability (Seliciclib + Dasatinib; first compound 0.253 µM): 0.396 | relative viability (Seliciclib + Dasatinib; first compound 0.8 µM): 0.269 | relative viability (Seliciclib + Dasatinib; first compound 2.53 µM): 0.215 | relative viability (Seliciclib + Dasatinib; first compound 8 µM): 0.23 | relative viability (Seliciclib + Palbociclib; first compound 0.08 µM): 0.444 | relative viability (Seliciclib + Palbociclib; first compound 0.253 µM): 0.65 | relative viability (Seliciclib + Palbociclib; first compound 0.8 µM): 0.517 | relative viability (Seliciclib + Palbociclib; first compound 2.53 µM): 0.391 | relative viability (Seliciclib + Palbociclib; first compound 8 µM): 0.275

— the supplement of paper PMC10307832
